Laboratory results reported in patent US20080025960A1, “Detergents with stabilized enzyme systems” (priority 2006, published 2008).

Columns and labels:
[1] = target: T1, choline oxidase (Arthrobacter globiformis, UniProt Q7X2H8); assay: H2O2 in control buffer or AATCC liquid detergent stock with choline oxidase, choline and inhibitor; format: biochemical; conditions: for H2O2 PPM: T = 0+, 12, 30 and 60, 1M choline chloride, 10U choline oxidase, 100 mM sodium bisulfite inhibitor (pH7)
T1 sequence (Q7X2H8 1-546): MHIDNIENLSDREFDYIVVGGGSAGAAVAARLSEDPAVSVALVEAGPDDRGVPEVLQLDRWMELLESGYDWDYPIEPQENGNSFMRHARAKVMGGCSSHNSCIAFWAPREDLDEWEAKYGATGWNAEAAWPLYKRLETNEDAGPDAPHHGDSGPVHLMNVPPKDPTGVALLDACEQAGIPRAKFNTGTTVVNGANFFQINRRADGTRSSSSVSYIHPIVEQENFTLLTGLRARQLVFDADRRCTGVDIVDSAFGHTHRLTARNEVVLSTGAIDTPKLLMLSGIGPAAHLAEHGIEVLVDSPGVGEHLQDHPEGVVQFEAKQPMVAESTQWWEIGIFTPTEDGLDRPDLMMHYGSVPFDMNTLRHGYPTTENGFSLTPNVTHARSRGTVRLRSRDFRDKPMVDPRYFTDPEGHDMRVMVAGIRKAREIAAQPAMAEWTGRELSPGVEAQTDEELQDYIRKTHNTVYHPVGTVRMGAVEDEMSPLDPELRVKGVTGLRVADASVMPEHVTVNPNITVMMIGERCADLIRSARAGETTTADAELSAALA
Method: In this Example, experiments conducted to assess the stabilization of choline oxidase in the presence of its substrate (i.e., choline) and an inhibitor (i.e., sodium bisulfite and 2-amino,2-methyl,1-propanol) is described. In these experiments, AATCC standard detergent was used.
(§1) The experiments were conducted as described in Example 1. Choline oxidase produces two moles of H2O2 per mole of choline. The results obtained in these experiments confirmed that choline oxidase was stable in AATCC detergent over 24 hour period tested in presence of choline and inhibitors. […] Upon dilution in wash liquor, detergent containing choline oxidase, choline chloride and an inhibitor (e.g., sodium hydrogen sulfite or 2-amino,2-methyl,1-propanol) produced H2O2 over time, as indicated in Table 5.

[2] = target: T1, choline oxidase; assay: H2O2 in wash liquor with choline oxidase, choline chloride and inhibitor; format: biochemical; conditions: 2 mM choline chloride, 0.02U choline oxidase, 0.2 mM sodium bisulfite inhibitor (pH7)
Method: as §1

O=S([O-])O.[Na+] [bisulfite, sodium hydrogen sulfite]
H2O2 PPM ([1]; AATCC Detergent): 0 PPM
H2O2 PPM ([1]; Control Buffer): 0 PPM
premature generation of H2O2 in AATCC detergent stock ([1]; sodium hydrogen sulfite 100 mM concentration): able to stop premature generation of H2O2
character of choline oxidase inhibition ([1]; sodium hydrogen sulfite at 100 mM concentration tested): reversible inhibitor
H2O2 PPM ([2]; AATCC Detergent, T = 0+): 1 PPM
H2O2 PPM ([2]; AATCC Detergent, T = 12 min): 10 PPM
H2O2 PPM ([2]; AATCC Detergent, T = 30 min): > 10 PPM
H2O2 PPM ([2]; AATCC Detergent, T = 60 min): 30 PPM
H2O2 PPM ([2]; Control Buffer, T = 0+): 1 PPM
H2O2 PPM ([2]; Control Buffer, T = 12 min): 10 PPM
H2O2 PPM ([2]; Control Buffer, T = 30 min): > 10 PPM
H2O2 PPM ([2]; Control Buffer, T = 60 min): 30 PPM
